Where a name gives a salt, the structure may show the parent alone.

This is an account of results in patent publication US10040804B2, “Compounds targeting proteins, compositions, methods, and uses thereof” (BioTheryX, Inc., priority 2016, dated 2018).

The subject of one test is IL-1β. As to the kind of experiment: IL-1β expression in LPS stimulated PBMCs (Meso Scale). The class given is cell-based, human. The settings on record: Homo sapiens, PBMC, compound concentration 10 μM. The gist of the method:
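Human PBMCs (200,000 cells/well in RPMI-1640/10% FBS) were pretreated with compound for 1 h, then stimulated with 100 ng/mL LPS for 18-24 h. IL-1β in supernatant was measured by Meso Scale assay. Activity is expressed as percentage of LPS-induced level, with DMSO-treated wells as negative control.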

In the next test the test system is Molm-13 cells. Kind of test: Molm-13 cell viability (CellTiter-Glo). It counts as cell-based. Conditions: Homo sapiens, MOLM-13; compound concentration 10 μM; read-out: % Inhibition (MOLM-13 Cell Viability). Put shortly: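 Molm-13 (RPMI-1640, 10% FBS) and H1048 (DMEM:F12, 5% FBS with supplements) plated at 20,000 cells/well, treated with compound or 0.1% DMSO for 3 days at 37° C., 5% CO2. Viability read by CellTiter-Glo luminescence after 10 min.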
Background: In ATP-based viability assays light output follows the ATP content of the culture.

The subject of a further test is IL-2. As to the kind of experiment: anti-CD3-induced IL-2 secretion in PBMCs. It counts as cell-based. The settings on record: Homo sapiens, PBMC; compound concentration 10 μM; anti-CD3 stimulated PBMCs, 24 h; DMSO = 1.0; read-out: Fold Change IL-2. The procedure:
FIGS. 4 and 9D are graphs showing anti-CD3-induced IL-2 secretion in PBMCs. 1 ug/mL anti-CD3 (OKT-3) antibody in PBS were coated onto 96-well plates overnight at 4° C. Approximately 550,000 PBMCs were added to each well, followed by addition of DMSO only, Compound 1-8 at 10 μM (FIG. 4) or Compound 9 at 0.1 μM or 1 μM (FIG. 9D), or 10 μM lenalidomide (rev). Induction was measured after 24 h as fold difference from the DMSO stimulated control.
For the IL-2 analysis, 96 well plates were precoated with 1 ug/mL anti-human CD3 antibody (OKT3, eBioscience Inc.). After washing with PBS, compounds were added to the wells (50 μL/well) followed by PBMCs diluted at 3-4 million cells/mL (150 μL/well). Plates were incubated for 24 h and the supernatants collected for Mesoscale IL-2 analysis.
Compound activity was measured as fold difference from the DMSO control. IL-1-beta activity is shown in FIG. 1; IL-6 activity is shown in FIG. 2; TNF-α activity is shown in FIG. 3; and IL-2 activity is shown in FIG. 4.

The next test has as its system IL-6. Kind of test: IL-6 expression in LPS stimulated PBMCs (Meso Scale). It counts as cell-based, human. The settings on record: Homo sapiens, PBMC; compound concentration 10 μM; LPS-stimulated PBMCs. The gist of the method:
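Thawed human PBMCs at 200,000 cells/well in RPMI-1640/10% FBS were pretreated with compound or DMSO for 1 h, then stimulated with 100 ng/mL LPS for 18–24 h. Supernatant IL-6 was measured by Meso Scale assay and expressed as % of LPS-induced activity.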

The subject of a further test is TNF-α. Kind of test: TNF-α expression in LPS stimulated PBMCs (Meso Scale). It counts as cell-based, human. The settings on record: Homo sapiens, PBMC, compound concentration 10 μM. The gist of the method:
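Thawed primary human PBMCs, 200,000 cells/well in RPMI-1640/10% FBS, pretreated with compound 1 h, then stimulated with 100 ng/mL LPS for 18-24 h. Supernatant TNF-α measured by Meso Scale assay; activity expressed as percentage of LPS-induced level, DMSO as negative control.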

One may read the inhibition as how much of the control response was suppressed. A higher inhibition goes with strong suppression. Consider `Cc1scc2c1CN([C@H]1CCCC(=O)NC1=O)C2=O` [Compound 8, (S)-3-(1-methyl-4-oxo-4H-thieno[3,4-c]pyrrol-5(6H)-yl)azepane-2,7-dione], for which the inhibition at 10 µM in the test with IL-1β stood at 80%; with IL-6 it was 71%; with TNF-α, 71%. Moreover, the cytotoxicity at 10 µM with Molm-13 cells came out at 42%. Also, the fold induction at 10 µM with IL-2 stood at 1.

On to `O=C1CCC[C@H](N2Cc3c(csc3C3CCCC3)C2=O)C(=O)N1` [Compound 10, (S)-3-(1-Cyclopentyl-4-oxo-4H-thieno[3,4-c]pyrrol-5(6H)-yl)azepane-2,7-dione], for which the inhibition at 10 µM with IL-1β turned out to be 21%; in the test with IL-6, 13%; in the test with TNF-α, 37%. Moreover, the cytotoxicity at 10 µM with Molm-13 cells came to 18%. In addition, the fold induction at 10 µM in the test on IL-2 stood at 0.6.

As to `Cc1cc2c(s1)CN([C@H]1CCCC(=O)NC1=O)C2=O` [Compound 11, (S)-3-(2-Methyl-4-oxo-4,6-dihydro-5H-thieno[2,3-c]pyrrol-5-yl)azepane-2,7-dione], the inhibition at 10 µM was found to be 65% in the test with IL-1β, 26% with IL-6 and 46% in the test with TNF-α. Besides, in the test on Molm-13 cells, the cytotoxicity at 10 µM worked out at 18%. Besides, the fold induction at 10 µM in the test on IL-2 is 2.6.

Consider `CC(C)c1scc2c1CN([C@H]1CCCC(=O)NC1=O)C2=O` [Compound 12, (S)-3-(1-Isopropyl-4-oxo-4H-thieno[3,4-c]pyrrol-5(6H)-yl)azepane-2,7-dione], for which the inhibition at 10 µM in the test on IL-1β stood at 52%; in the test on IL-6, 0%; in the test with TNF-α, 56%. Further, the cytotoxicity at 10 µM in the test with Molm-13 cells came out at 31%. Also, the fold induction at 10 µM with IL-2 came to 0.8.

Turning to `O=C1CCC[C@H](N2Cc3c(csc3Br)C2=O)C(=O)N1` [Compound 13, (S)-3-(1-Bromo-4-oxo-4H-thieno[3,4-c]pyrrol-5(6H)-yl)azepane-2,7-dione], the figures for the inhibition at 10 µM in the test on IL-1β, in the test on IL-6 and in the test with TNF-α were 90%, 66% and 84%, respectively. Also, the cytotoxicity at 10 µM in the test on Molm-13 cells was 0%. In the test with IL-2, the fold induction at 10 µM is 1.2.

On to `O=C1CCC[C@H](N2Cc3sc(Br)cc3C2=O)C(=O)N1` [Compound 14, (S)-3-(2-Bromo-4-oxo-4,6-dihydro-5H-thieno[2,3-c]pyrrol-5-yl)azepane-2,7-dione], for which the inhibition at 10 µM in the test with IL-1β is 88%; in the test on IL-6, 65%; in the test on TNF-α it was 85%. The cytotoxicity at 10 µM in the test on Molm-13 cells was 0%. The fold induction at 10 µM in the test on IL-2 came to 1.5.

For the compound `O=C1CCC[C@H](N2C(=O)c3csc([N+](=O)[O-])c3C2=O)C(=O)N1` [Compound 15, (S)-5-(2,7-Dioxoazepan-3-yl)-1-nitro-4H-thieno[3,4-c]pyrrole-4,6(5H)-dione], the results for the inhibition at 10 µM with IL-1β, in the test with IL-6 and in the test on TNF-α were 67%, 56% and 55%, respectively. Moreover, in the test on Molm-13 cells, the cytotoxicity at 10 µM turned out to be 19%. Also, the fold induction at 10 µM with IL-2 turned out to be 0.7.

On to `Nc1scc2c1C(=O)N([C@H]1CCCC(=O)NC1=O)C2=O` [Compound 16, (S)-1-Amino-5-(2,7-dioxoazepan-3-yl)-4H-thieno[3,4-c]pyrrole-4,6(5H)-dione], for which the inhibition at 10 µM amounted to 80% in the test on IL-1β, 51% in the test with IL-6 and 78% in the test with TNF-α. Besides, the cytotoxicity at 10 µM in the test with Molm-13 cells came out at 23%. For the same compound, in the test with IL-2, the fold induction at 10 µM came to 2.2.

Regarding `N#Cc1scc2c1CN([C@H]1CCCC(=O)NC1=O)C2=O` [Compound 17, (S)-5-(2,7-Dioxoazepan-3-yl)-4-oxo-5,6-dihydro-4H-thieno[3,4-c]pyrrole-1-carbonitrile], the inhibition at 10 µM with IL-1β turned out to be 4%; in the test with IL-6, 14%; in the test with TNF-α, 26%. For the same compound, the cytotoxicity at 10 µM with Molm-13 cells amounted to 21%. Moreover, the fold induction at 10 µM in the test on IL-2 was 1.

Consider `NCc1scc2c1CN([C@H]1CCCC(=O)NC1=O)C2=O` [Compound 18, (S)-3-(1-(Aminomethyl)-4-oxo-4H-thieno[3,4-c]pyrrol-5(6H)-yl)azepane-2,7-dione 2,2,2-trifluoroacetic Acid Salt], for which the inhibition at 10 µM with IL-1β was determined as 36%; with IL-6 it was 32%; in the test with TNF-α it was 48%. For the same compound, the cytotoxicity at 10 µM with Molm-13 cells was 3%. In addition, the fold induction at 10 µM with IL-2 turned out to be 0.9.

As to `O=C1CCC[C@H](N2Cc3c(csc3C(F)F)C2=O)C(=O)N1` [Compound 19, (S)-3-(1-(Difluoromethyl)-4-oxo-4H-thieno[3,4-c]pyrrol-5(6H)-yl)azepane-2,7-dione], the inhibition at 10 µM in the test on IL-1β was 79%; in the test with IL-6 it was 78%; with TNF-α, 59%. Moreover, the cytotoxicity at 10 µM with Molm-13 cells was 29%. The fold induction at 10 µM in the test with IL-2 was found to be 4.

As to `Cc1scc2c1CN([C@H]1CC(=O)NC1=O)C2=O` [Compound 20, (S)-3-(1-Methyl-4-oxo-4H-thieno[3,4-c]pyrrol-5(6H)-yl) pyrrolidine-2,5-dione], the values for the inhibition at 10 µM in the test with IL-1β, in the test with IL-6 and in the test on TNF-α were 50%, 19% and 58%, respectively. The cytotoxicity at 10 µM in the test on Molm-13 cells was 19%. The fold induction at 10 µM in the test on IL-2 was found to be 2.2.

With `O=C1CCC(N2Cc3sccc3C2=O)C(=O)N1` (centres unmarked) [Compound 21, 3-(4-Oxo-4H-thieno[2,3-c]pyrrol-5(6H)-yl)piperidine-2,6-dione], the inhibition at 10 µM in the test with IL-1β was found to be 74%; in the test on IL-6, 73%; in the test on TNF-α it was 74%. Besides, the cytotoxicity at 10 µM in the test with Molm-13 cells worked out at 16%. Also, the fold induction at 10 µM with IL-2 amounted to 2.9.

For `O=C1CCC(N2C(=O)c3scc(C4CCCC4)c3C2=O)C(=O)N1` (centres unmarked) [Compound 22, 3-Cyclopentyl-5-(2,6-dioxopiperidin-3-yl)-4H-thieno[2,3-c]pyrrole-4,6(5H)-dione], the inhibition at 10 µM worked out at 0% in the test on IL-1β, 16% in the test on IL-6 and 26% in the test on TNF-α. Also, in the test with Molm-13 cells, the cytotoxicity at 10 µM was 23%. The fold induction at 10 µM in the test on IL-2 came to 0.8.

For `O=C1CCC(N2Cc3c(csc3C(F)F)C2=O)C(=O)N1` (centres unmarked) [Compound 23, 3-(1-(Difluoromethyl)-4-oxo-4H-thieno[3,4-c]pyrrol-5(6H)-yl)piperidine-2,6-dione], the inhibition at 10 µM was determined as 69% in the test on IL-1β, 45% in the test on IL-6 and 82% with TNF-α. Moreover, the cytotoxicity at 10 µM with Molm-13 cells is 34%. Also, the fold induction at 10 µM in the test on IL-2 was 2.

With `O=C1CCC[C@H](N2Cc3c(C4CCCC4)csc3C2=O)C(=O)N1` [Compound 24, (S)-3-(3-Cyclopentyl-6-oxo-4H-thieno[2,3-c]pyrrol-5(6H)-yl)azepane-2,7-dione], the inhibition at 10 µM in the test with IL-1β is 11%; in the test with IL-6, 6%; in the test on TNF-α, 23%. Also, the cytotoxicity at 10 µM in the test with Molm-13 cells turned out to be 26%. In addition, the fold induction at 10 µM in the test on IL-2 is 0.7.

Regarding `Cc1sc(Cl)c2c1CN([C@H]1CCCC(=O)NC1=O)C2=O` [Compound 25, (S)-3-(3-Chloro-1-methyl-4-oxo-4H-thieno[3,4-c]pyrrol-5(6H)-yl)azepane-2,7-dione], the inhibition at 10 µM in the test on IL-1β is 45%; with IL-6, 22%; with TNF-α, 41%. Further, the cytotoxicity at 10 µM in the test on Molm-13 cells was found to be 20%. Further, in the test on IL-2, the fold induction at 10 µM was 1.3.

Regarding `O=C1CCC(N2C(=O)c3cc(C4CCCC4)sc3C2=O)C(=O)N1` (centres unmarked) [Compound 26, 2-Cyclopentyl-5-(2,6-dioxopiperidin-3-yl)-4H-thieno[2,3-c]pyrrole-4,6(5H)-dione], the inhibition at 10 µM in the test on IL-1β stood at 2%; in the test on IL-6, 14%; in the test on TNF-α, 31%. In addition, in the test on Molm-13 cells, the cytotoxicity at 10 µM was determined as 0%. Further, the fold induction at 10 µM with IL-2 was 0.9.

On to `O=C1CCC(N2C(=O)c3csc(C4CCCC4)c3C2=O)C(=O)N1` (centres unmarked) [Compound 27, 1-Cyclopentyl-5-(2,6-dioxopiperidin-3-yl)-4H-thieno[3,4-c]pyrrole-4,6(5H)-dione], for which the inhibition at 10 µM worked out at 21% in the test with IL-1β, 3% with IL-6 and 22% in the test with TNF-α. Besides, the cytotoxicity at 10 µM in the test with Molm-13 cells is 0%. Moreover, the fold induction at 10 µM with IL-2 stood at 0.8.
